Experiments:
[1] = tested on: tobacco budworm; test: foliar treated test against tobacco budworm on chick pea plants; assay type: in vivo, Heliothis virescens; settings: 96 hour exposure, dead plus moribund insects
Description: Certain compounds of formula I were tested against tobacco budworm on plant foliage. The foliar treated test against tobacco budworm were conducted in the following manner:
Nine-to-ten day-old chick pea plants (Cicer arietinum) were sprayed at 15 psi to runoff on both upper and lower leaf surfaces with solutions of test compound to provide application rates as high as 1000 ppm of test chemical. The solvent used to prepare the solutions of test compound was 10% acetone or methanol (v/v) and 0.1% of the surfactant octylphenoxypolyethoxyethanol in distilled water. Four replicates, each containing one chick pea plant, for each rate of application of test compound were sprayed. The treated plants were transferred to a hood where they were kept until the spray had dried.
The four chick pea plants for each replicate treated with test compound as described above were removed from their pots by cutting the stems just above the soil line. The excised leaves and stems from the four plants in each replicate were placed in individual 237 mL (8-ounce) paper cups, which contained a moistened filter paper. Five second-instar tobacco budworm (7 days old) were counted into each cup, taking care not to cause injury. An opaque plastic lid was placed on each cup, which was then held in a growth chamber for a 96 hour exposure period at 25° C., 50% relative humidity and photo-period of 12 hours light and 12 hours dark. At the end of the 96 hour exposure period the cups were opened, and the numbers of dead, moribund, and live insects were counted. Using the insect counts, the efficacy of the test compound was expressed in percent control. Percent control is derived from the total number of dead insects (TD) plus the total number of moribund insects (TM) as compared to the total number of insects (TI) in the test:
The condition of the test plants was also observed for phytotoxicity and for reduction of feeding damage as compared to an untreated control.

[2] = tested on: tobacco budworm (Heliothis virescens [Fabricius]); test: surface-treated diet test against tobacco budworm; assay type: in vivo; settings: 0.25 millimolar on the surface of the diet, second instar larvae, five-day exposure; for Percent Growth Inhibition: insect weight relative to untreated controls
Excerpt: The test compounds of formula I are identified by numbers that correspond to those in Table 1.

[3] = 30 ppm foliar spray on chick pea
[4] = 10 ppm foliar spray on chick pea

Compound	Percent Control [1, 3]	Percent Control [1, 4]	Percent Growth Inhibition [2]	Percent Mortality [2]
CC1(C)Cc2cc(Cl)cc(OCCOc3c(Cl)cc(OCC=C(Cl)Cl)cc3Cl)c2O1 [Compound 1]	70%	–	–	–
CC1(C)Oc2cccc(OCCCCOc3c(Cl)cc(OCC=C(Cl)Cl)cc3Cl)c2O1 [Compound 2, 5-(3,3-Dichloroprop-2-enyloxy)-2-[4-(2,2-dimethylbenzo[d]1,3-dioxolan-4-yloxy)butoxy]-1,3-dichlorobenzene]	100%	85%	100%	–
CC1(C)Oc2ccc(OCCCCOc3c(Cl)cc(OCC=C(Cl)Cl)cc3Cl)cc2O1 [Compound 4, 5-{4-[4-(3,3-dichloroprop-2-enyloxy)-2,6-dichlorophenoxy]butoxy}-2,2-dimethylbenzo[d]1,3-dioxolane]	100%	83%	100%	–
FC1(F)Oc2ccc(OCCCCOc3c(Cl)cc(OCC=C(Cl)Cl)cc3Cl)cc2OC1(F)F [Compound 9, 5-(3,3-Dichloroprop-2-enyloxy)-1,3-dichloro-2-[4-(2,2,3,3-tetrafluorobenzo[3,4-e]1,4-dioxan-6-yloxy)butoxy]benzene]	100%	–	100%	100%
